Laboratory results reported in patent publication US6365609B1, “Substituted 3,3-diamino-2-propenenitriles, their preparation and use” (Novo Nordisk A/S, priority 1998, dated 2002).

System: not given
Conditions: not given

Row | melting point | SMILES
1 | 155.5 to 158.5 °C | CC(NC(Nc1cc(C(F)(F)F)cc(C(F)(F)F)c1)=C(C#N)S(=O)(=O)c1ccc(Cl)cc1)C(C)(C)C (centres unmarked) [Example 1, 3-[3,5-bis(trifluoromethyl)phenylamino]-2-(4-chlorophenylsulfonyl)-3-(1,2,2-trimethylpropylamino)-2-propenenitrile]
2 | 199 to 200 °C | N#CC(=C(Nc1cc(C(F)(F)F)cc(C(F)(F)F)c1)NC1CCCC1)S(=O)(=O)c1ccc(Cl)cc1 [Example 2, 3-[3,5-Bis(trifluoromethyl)phenylamino]-2-(4-chlorophenylsulfonyl)-3-cyclopentylamino2-propenenitrile]
3 | 197 to 198.5 °C | CC(C)NC(Nc1cc(C(F)(F)F)cc(C(F)(F)F)c1)=C(C#N)S(=O)(=O)c1ccc(Cl)cc1 [Example 3, 3-[3,5-Bis(trifluoromethyl)phenylamino]-2-(4-chlorophenylsulfonyl)-3-isopropylamino-2-propenenitrile]
4 | 190.5 to 193 °C | N#CC(=C(Nc1cc(C(F)(F)F)cc(C(F)(F)F)c1)NC1CCC1)S(=O)(=O)c1ccc(Cl)cc1 [Example 4, 3-[3,5-Bis(trifluoromethyl)phenylamino]-2-(4-chlorophenylsulfonyl)-3-cyclobutylamino-2-propenenitrile]
5 | 196.5 to 198.5 °C | CCCNC(Nc1cc(C(F)(F)F)cc(C(F)(F)F)c1)=C(C#N)S(=O)(=O)c1ccc(Cl)cc1 [Example 5, 3-[3,5-Bis(trifluoromethyl)phenylamino]-2-(4-chlorophenylsulfonyl)-3-propylamino2-propenenitrile]
6 | 163 to 169 °C | CC(NC(Nc1cc(Cl)cc(Cl)c1)=C(C#N)S(=O)(=O)c1ccc(Cl)cc1)C(C)(C)C (centres unmarked) [Example 7, 2-(4-Chlorophenylsulfonyl)-3-(3,5-dichlorophenylamino)-3-(1,2,2-trimethylpropylamino)-2-propenenitrile]
7 | 184.5 to 188.5 °C | CC(NC(Nc1cc(C(F)(F)F)cc(C(F)(F)F)c1)=C(C#N)S(C)(=O)=O)C(C)(C)C (centres unmarked) [Example 9, 3-(3,5-Bis(trifluoromethyl)phenylamino)-2-methylsulfonyl-3-(1,2,2-trimethylpropylamino)-propenenitrile]
8 | 177.5 to 179 °C | COc1cc(NC(NC(C)C(C)(C)C)=C(C#N)S(=O)(=O)c2ccc(Cl)cc2)cc(OC)c1 (centres unmarked) [Example 10, 2-(4-Chlorophenylsulfonyl)-3-(3,5-dimethoxyphenylamino)-3-(1,2,2-trimethylpropylamino)-2-propenenitrile]
9 | 151.5 to 154 °C | CC(NC(=C(C#N)S(=O)(=O)c1ccc(Cl)cc1)N(C)c1cc(C(F)(F)F)cc(C(F)(F)F)c1)C(C)(C)C (centres unmarked) [Example 11, 3-[N-(3,5-bis(trifluoromethyl)phenyl)-N-methylamino]-2-(4-chlorophenylsulfonyl)-3-(1,2,2-trimethylpropylamino)-2-propenenitrile]
10 | 205 to 207 °C | CCC(C)(C)NC(Nc1cc(C(F)(F)F)cc(C(F)(F)F)c1)=C(C#N)S(=O)(=O)c1ccc(Cl)cc1 [Example 17, 3-[3,5-Bis(trifluoromethyl)phenylamino]-2-(4-chlorophenylsulfonyl)-3-(1,1-dimethylpropylamino)-2-propenenitrile]
11 | 164 to 165 °C | C[C@@H](NC(Nc1cc(C(F)(F)F)cc(C(F)(F)F)c1)=C(C#N)S(=O)(=O)c1ccc(Cl)cc1)C(C)(C)C [Example 19, (R)-3-[3,5-bis(trifluoromethyl)phenylamino]-2-(4-chlorophenylsulfonyl)-3-(1,2,2-trimethylpropylamino)-2-propenenitrile]
12 | 188.5 to 191 °C | CC(C)NC(Nc1cc(C(F)(F)F)cc(C(F)(F)F)c1)=C(C#N)S(C)(=O)=O [Example 20, 3-(3,5-Bis(trifluoromethyl)phenylamino)-3-isopropylamino-2-methylsulfonyl-propenenitrile]
13 | 181 to 181.5 °C | C[C@@H](NC(Nc1cc(C(F)(F)F)cc(C(F)(F)F)c1)=C(C#N)S(C)(=O)=O)C(C)(C)C [Example 21, (R)-3-[3,5-bis(trifluoromethyl)phenylamino]-2-methanesulfonyl-3-(1,2,2-trimethylpropylamino)-2-propenenitrile]
14 | 180.5 to 181.5 °C | C[C@H](NC(Nc1cc(C(F)(F)F)cc(C(F)(F)F)c1)=C(C#N)S(C)(=O)=O)C(C)(C)C [Example 22, (S)-3-[3,5-bis(trifluoromethyl)phenylamino]-2-methanesulfonyl-3-(1,2,2-trimethylpropylamino)-2-propenenitrile]
15 | 189 to 190 °C | CCC(C)(C)NC(Nc1cc(OC)cc(OC)c1)=C(C#N)S(=O)(=O)c1ccc(Cl)cc1 [Example 23, 2-(4-Chlorophenylsulfonyl)-3-(3,5-dimethoxyphenylamino)-3-(1,1-dimethylpropylamino)-2-propenenitrile]
16 | 163.5 to 164.5 °C | COc1cc(NC(NC2CCC2)=C(C#N)S(=O)(=O)c2ccc(Cl)cc2)cc(OC)c1 [Example 24, 2-(4-Chlorophenylsulfonyl)-3-(3,5-dimethoxyphenylamino)3cyclobutylamino-2-propenenitrile]
17 | 169 to 170 °C | CCC(C)(C)NC(Nc1ccc2c(c1)OCO2)=C(C#N)S(=O)(=O)c1ccc(Cl)cc1 [Example 27, 3-(Benzo[1,3]dioxol-5-ylamino)-3-(1,1-dimethyl-propylamino)-2-(4-chloro-phenylsulfonyl)-propenenitrile]
18 | 189.5 °C | N#CC(=C(Nc1ccc2c(c1)OCO2)NC1CCC1)S(=O)(=O)c1ccc(Cl)cc1 [Example 28, 3-(Benzo[1,3]dioxol-5-ylamino)-3-cyclobutylamino-2-(4-chloro-phenylsulfonyl)-propenenitrile]
19 | 150 to 152 °C | CCC(C)NC(Nc1cc(Cl)cc(Cl)c1)=C(C#N)S(=O)(=O)c1ccc(Cl)cc1 (centres unmarked) [Example 31, 3-sec-Butylamino-2-(4-chlorophenylsulfonyl)-3-(3,5-dichlorophenylamino)-2-propenenitrile]
20 | 183 to 185 °C | CC(NC(Nc1cc(F)cc(C(F)(F)F)c1)=C(C#N)S(C)(=O)=O)C(C)(C)C (centres unmarked) [Example 33, 3-(3-Fluoro-5trifluoromethyl-phenylamino)-2-methylsulfonyl-3-(1,2,2-trimethylpropylamino)-propenenitrile]
21 | 160.5 to 161.5 °C | CC(NC(Nc1ccc(Cl)cc1)=C(C#N)S(C)(=O)=O)C(C)(C)C (centres unmarked) [Example 34, 3-(4-Chlorophenylamino)-2-methylsulfonyl-3-(1,2,2-trimethylpropylamino)-acrylonitrile]
22 | 112 to 114 °C | CCC(C)(C)NC(Nc1ccc2ncsc2c1)=C(C#N)S(C)(=O)=O [Example 35, 3-(Benzothiazol-6-ylamino)-3-(1,1-dimethyl-propylamino)-2-methylsulfonyl-propenenitrile]
23 | 161 to 165 °C | CCC(C)(C)NC(Nc1ccc2c(c1)OCO2)=C(C#N)C(=O)C(C)(C)C [Example 36, 3-(Benzo[1,3]dioxol-5-ylamino)-2-(2,2-dimethyl-propionyl)-3-(1,1-dimethyl-propylamino)-propenenitrile]

Biological target: KATP-channels on pancreatic beta-cells (Homo sapiens, UniProt Q09428)
Sequence (Q09428 whole entry): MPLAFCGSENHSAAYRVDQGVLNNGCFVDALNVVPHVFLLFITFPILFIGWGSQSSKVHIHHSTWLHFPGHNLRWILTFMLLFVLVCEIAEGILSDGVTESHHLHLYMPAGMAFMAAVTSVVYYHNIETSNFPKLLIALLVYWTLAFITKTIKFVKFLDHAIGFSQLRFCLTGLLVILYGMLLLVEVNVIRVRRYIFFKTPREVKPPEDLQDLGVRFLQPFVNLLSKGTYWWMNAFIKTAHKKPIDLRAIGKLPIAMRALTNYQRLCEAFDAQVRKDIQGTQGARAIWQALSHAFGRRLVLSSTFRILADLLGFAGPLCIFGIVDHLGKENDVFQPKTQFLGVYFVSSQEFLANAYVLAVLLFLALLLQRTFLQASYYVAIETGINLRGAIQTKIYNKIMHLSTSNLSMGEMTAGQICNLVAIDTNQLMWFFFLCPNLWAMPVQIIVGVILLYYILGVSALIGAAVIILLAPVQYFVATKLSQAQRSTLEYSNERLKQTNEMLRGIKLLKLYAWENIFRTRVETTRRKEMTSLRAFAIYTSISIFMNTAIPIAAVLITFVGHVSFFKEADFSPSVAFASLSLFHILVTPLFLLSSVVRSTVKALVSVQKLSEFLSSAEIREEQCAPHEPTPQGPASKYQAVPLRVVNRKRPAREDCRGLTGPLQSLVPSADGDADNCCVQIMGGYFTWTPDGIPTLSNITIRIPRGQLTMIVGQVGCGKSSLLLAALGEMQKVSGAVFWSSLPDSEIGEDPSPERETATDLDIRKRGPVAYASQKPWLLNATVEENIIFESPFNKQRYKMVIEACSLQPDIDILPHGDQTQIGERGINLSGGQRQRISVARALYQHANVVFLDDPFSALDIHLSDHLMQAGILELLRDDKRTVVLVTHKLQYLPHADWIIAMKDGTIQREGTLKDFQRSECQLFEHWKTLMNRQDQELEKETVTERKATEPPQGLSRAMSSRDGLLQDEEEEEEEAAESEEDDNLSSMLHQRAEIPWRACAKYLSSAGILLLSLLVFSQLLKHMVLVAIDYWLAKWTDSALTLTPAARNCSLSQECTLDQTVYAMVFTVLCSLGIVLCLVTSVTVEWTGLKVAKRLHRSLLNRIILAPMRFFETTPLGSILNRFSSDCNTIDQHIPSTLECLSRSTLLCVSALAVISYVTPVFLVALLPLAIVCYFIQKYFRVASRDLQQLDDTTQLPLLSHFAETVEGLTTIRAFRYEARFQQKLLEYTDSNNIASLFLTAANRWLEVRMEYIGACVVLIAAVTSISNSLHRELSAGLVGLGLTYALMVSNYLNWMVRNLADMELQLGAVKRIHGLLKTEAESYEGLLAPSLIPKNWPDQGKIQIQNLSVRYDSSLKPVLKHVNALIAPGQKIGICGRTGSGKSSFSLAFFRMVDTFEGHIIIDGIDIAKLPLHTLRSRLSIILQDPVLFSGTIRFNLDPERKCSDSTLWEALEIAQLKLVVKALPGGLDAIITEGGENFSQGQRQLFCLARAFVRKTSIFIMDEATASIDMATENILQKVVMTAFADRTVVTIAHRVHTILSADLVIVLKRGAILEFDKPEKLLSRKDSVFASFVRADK
Sequence (Q14654 whole entry partner): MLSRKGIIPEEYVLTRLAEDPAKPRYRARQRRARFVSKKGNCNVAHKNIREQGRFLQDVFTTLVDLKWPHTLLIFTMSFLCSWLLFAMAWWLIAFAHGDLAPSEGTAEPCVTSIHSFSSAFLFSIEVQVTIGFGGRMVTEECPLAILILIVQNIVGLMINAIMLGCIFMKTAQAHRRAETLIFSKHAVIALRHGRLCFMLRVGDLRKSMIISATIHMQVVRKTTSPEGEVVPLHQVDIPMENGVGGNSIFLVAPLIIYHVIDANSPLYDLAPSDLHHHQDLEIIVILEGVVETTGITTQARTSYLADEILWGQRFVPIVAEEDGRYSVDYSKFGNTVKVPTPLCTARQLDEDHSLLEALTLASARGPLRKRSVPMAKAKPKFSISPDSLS
Conditions: by activation of KATP-channels; cited from earlier work

Row | SMILES | insulin release
24 | CC1=Nc2ccc(Cl)cc2S(=O)(=O)N1 [diazoxide, 7-chloro-3-methyl-2H-1,2,4-benzothiadiazine 1,1-dioxide] | inhibit insulin release

System: BB-rats
Conditions: cited from earlier work

Row | SMILES | onset of diabetes
25 | CC1=Nc2ccc(Cl)cc2S(=O)(=O)N1 [diazoxide, 7-chloro-3-methyl-2H-1,2,4-benzothiadiazine 1,1-dioxide] | delay the onset of diabetes

System: obese zucker rats
Conditions: cited from earlier work

Row | SMILES | glucose tolerance | insulin receptor binding | insulin secretion | weight gain
26 | CC1=Nc2ccc(Cl)cc2S(=O)(=O)N1 [diazoxide, 7-chloro-3-methyl-2H-1,2,4-benzothiadiazine 1,1-dioxide] | improve glucose tolerance | increase insulin receptor binding | decrease insulin secretion | decrease weight gain
